Laboratory results reported in US9242972B2, “Compounds” (Glaxo Group Limited, priority 2012, dated 2016).

Experiments:
[1] = test system: IL-17A secreted from antiCD3/CD28 stimulated Peripheral Blood Mononuclear cells (PBMC); test: Peripheral Blood Mononucleocyte Cell Assay (PBMC Assay - IL-17); type: cell-based; settings: inhibition of IL-17A release, human PBMC stimulated with CD3/CD28 beads, 48 hours; read-out: mean pIC50 (converted)
Protocol: Peripheral Blood Mononucleocyte Cell Assay (PBMC Assay—IL-17)
This assay is designed to measure levels of IL-17A secreted from antiCD3/CD28 stimulated frozen Peripheral Blood Mononuclear cells (PBMC) isolated from human blood with the aim of identifying inhibitors of IL-17A release.
2. The compounds for screening are dispensed into a master plate at 10 mM top concentration which are serially diluted 1:3 across 11 points in DMSO, then 500 nl is transferred into a 384-well flat-bottomed Greiner plate to which 50 ul of cell suspension is added: for the single shot screening the highest concentration of compound is 10^−5 M; for 11 point full curve dose response studies the highest concentration is 10^−4 M.
As a low control, DMSO (as supplied, for example, by VWR) (final concentration 1%) in column 6 (16 points).
As a high control, 5-(4-fluorophenyl)-2-ureidothiophene-3-carboxamide (obtainable from, for example, Sigma) at a final concentration of 10^−4 M in DMSO should be used in column 18 (16 points).
9. Make the cell suspension at the concentration 8×10^5 cells/mL. to give a final number of 40,000 cells/well.
1. Add well mixed CD3/CD28 Dynabeads (as supplied, for example, by Dynal) to achieve ratio bead:cell=2:1 (i.e a dilution of 1 in 20). Mix thoroughly.
2. Dispense the suspension into the 384 Assay Plates using Multidrop (50 ul per well). If the volume of cell suspension is large, mix the suspension after dispensing into every other plate.
3. Cover the plates with the lids and place them to the humidified incubator (37° C., 5% CO2) for 48 hours.
1. Block cytokine capture Mesoscale Discovery MSD plates with 0.1% Block buffer B (provided by Mesoscale Discovery) in D-PBS solution using 40 ul per well.
1. Transfer 10 ul of supernatants from assay plates to the MSD plates using Cybiwell. Ensure that all wells are covered with the solution. Tap the plate gently, if some of the wells are not covered with the supernatant.
3. Add 10 ul of MSD IL-17 detecting antibody using multidrop (1 ug/mL in D-PBS without Ca^2+ and Mg^2+ (supplied, for example, by Gibco)).
4. Cover the plates with adhesive foil and incubated with shaking for 3 hours at room temperature
7. Add 35 ul of MSD Read Buffer T×2 using multidrop.
8. Read plates on MSD MA6000 reader using the 384 well plate protocol as per manufacturer's instructions.

[2] = biological target: T1, RORγ ligand binding domain (RORγ-LBD) (Homo sapiens, UniProt P51449); test: Dual Fluorescence Energy Transfer (FRET) Assay; type: biochemical; settings: RORγ-LBD / SRC1(2) co-activator peptide interaction, read-out: mean pIC50 (converted)
T1 construct: His6 with thrombin site) (N); made in house; host or cells: E. coli BL21(DE3), modified pET21a vector
T1 sequence (P51449 263-518): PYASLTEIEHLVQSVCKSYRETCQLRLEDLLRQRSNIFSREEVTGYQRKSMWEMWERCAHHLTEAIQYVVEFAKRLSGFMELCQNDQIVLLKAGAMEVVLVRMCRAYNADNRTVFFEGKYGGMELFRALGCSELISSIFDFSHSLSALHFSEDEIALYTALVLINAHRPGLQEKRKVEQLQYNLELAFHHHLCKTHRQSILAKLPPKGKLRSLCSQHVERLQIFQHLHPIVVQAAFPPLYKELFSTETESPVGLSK
From the text: Dual Fluorescence Energy Transfer (FRET) Assay
This assay is based on the knowledge that nuclear receptors interact with cofactors (transcription factors) in a ligand dependent manner. RORγ is a typical nuclear receptor in that it has an AF2 domain in the ligand binding domain (LBD) which interacts with co-activators. The sites of interaction have been mapped to the LXXLL (SEQ ID NO:1) motifs in the co-activator SRC 1(2) sequences. Short peptide sequences containing the LXXLL (SEQ ID NO:1) motif mimic the behavior of full-length co-activator.
This assay measures ligand-mediated interaction of the co-activator peptide with the purified bacterial-expressed RORγ ligand binding domain (RORγ-LBD) to indirectly assess ligand binding. RORγ has a basal level of interaction with the co-activator SRC1(2) in the absence of ligand, Thus, it is possible to find ligands that inhibit or enhance the RORγ/SRC1(2) interaction.
Human RORγ Ligand Binding Domain (RORγ-LBD) was expressed in E. coli strain BL21(DE3) as an amino-terminal polyhistidine tagged fusion protein. DNA encoding this recombinant protein was sub-cloned into a modified pET21a expression vector (Novagen). A modified polyhistidine tag ([…]) (SEQ ID NO:2) was fused in frame to residues 263-518 of the human RORγ sequence.
Approximately 50 g E. coli cell pellet was resuspended in 300 mL of lysis buffer (30 mM imidazole pH 7.0 and 150 mM NaCl). Cells were lysed by sonication and cell debris was removed by centrifugation for 30 minutes at 20,000 g at 4° C. The cleared supernatant was filtered through a 0.45 uM cellulose acetate membrane filter. The clarified lysate was loaded onto a column (XK-26) packed with ProBond Nickel Chelating resin (InVitrogen), pre-equilibrated with 30 mM imidazole pH 7.0 and 150 mM NaCl. After washing to baseline absorbance with the equilibration buffer, the column was developed with a gradient from 30 to 500 mM imidazole pH 7.0. Column fractions containing the RORγ-LBD protein were pooled and concentrated to a volume of 5 mLs. The concentrated protein was loaded onto a Superdex 200 column pre-equilibrated with 20 mM Tris-Cl pH 7.2 and 200 mM NaCl. The fractions containing the desired RORγ-LBD protein were pooled together.
Purified RORγ-LBD was buffer exchanged by exhaustive dialysis [3 changes of at least 20 volumes (8000×)] against PBS [100 mM NaPhosphate, pH 8 and 150 mM NaCl]. The concentration of RORγ-LBD was approximately 30 uM in PBS. Five-fold molar excess of NHS-LC-Biotin (Pierce) was added in a minimal volume of PBS. This solution was incubated with occasional gentle mixing for 60 minutes at ambient room temperature. The modified RORγ-LBD was dialyzed against 2 buffer changes—TBS pH 8.0 containing 5 mM DTT, 2 mM EDTA and 2% sucrose—each at least 20 times of the volume. The modified protein was distributed into aliquots, frozen on dry ice and stored at −80° C. The biotinylated RORγ-LBD was subjected to mass spectrometric analysis to reveal the extent of modification by the biotinylation reagent. In general, approximately 95% of the protein had at least a single site of biotinylation and the overall extent of biotinylation followed a normal distribution of multiple sites ranged from one to five.
A biotinylated peptide corresponding to amino acid 676 to 700 ([…]) (SEQ ID NO:3) of the co-activator steroid receptor coactivator SRC1(2) was generated using similar method.
Biotinylated SRC1(2) solution was prepared by adding an appropriate amount of biotinylated SRC1(2) from the 100 uM stock solution to a buffer containing 10 mM of freshly added DTT from solid to give a final concentration of 40 nM. An appropriate amount of Europium labeled Streptavidin was then added to the biotinylated SRC1(2) solution in a tube to give a final concentration of 10 nM. The tube was inverted gently and incubated for 15 minutes at room temperature. […]

| Compound | IC50 [2] [nM] | IC50 [1] [nM] |
| --- | --- | --- |
| Cc1cc(C(C)C)cnc1N(CC(C)C)S(=O)(=O)c1ccc(OC[C@H]2CCNC[C@H]2F)cc1 (relative stereo) [Example 35, 4-((cis-3-fluoropiperidin-4-yl)methoxy)-N-isobutyl-N-(5-isopropyl-3-methylpyridin-2-yl)benzenesulfonamide] | – | 1000 |
| CC(C)c1ccc(N(C(C)C(C)C)S(=O)(=O)c2ccc(OCC3CCOCC3)cc2)nc1 (stereo not drawn) [Example 38, N-(5-isopropylpyridin-2-yl)-N-(3-methylbutan-2-yl)-4-((tetrahydro-2H-pyran-4-yl)methoxy)benzenesulfonamide] | ≤ 31.6 | 1000 |
| CC(C)CN(c1ccc(C(C)C)cn1)S(=O)(=O)c1ccc(OCC2CCOCC2)cc1 [Example 33, N-isobutyl-N-(5-isopropylpyridin-2-yl)-4-((tetrahydro-2H-pyran-4-yl)methoxy)benzenesulfonamide] | ≤ 31.6 | – |
| Cc1noc(C)c1COc1ccc(S(=O)(=O)N(CC(C)C)c2nccc(C(F)(F)F)n2)cc1 [Example 14, 4-{[(3,5-dimethyl-4-isoxazolyl)methyl]oxy}-N-(2-methylpropyl)-N-[4-(trifluoromethyl)-2-pyrimidinyl]benzenesulfonamide] | > 10000 | – |
| C=C(C)c1cnc(N(CC(C)C)S(=O)(=O)c2ccc(OCC3CCOCC3)cc2)c(C)c1 [Example 32, N-isobutyl-N-(3-methyl-5-(prop-1-en-2-yl)pyridin-2-yl)-4-((tetrahydro-2H-pyranyl)methoxy)benzenesulfonamide] | ≤ 31.6 | – |
| Cc1cc(Cl)cnc1N(CC(C)C)S(=O)(=O)c1ccc(OCC2CCOCC2)cc1 [Example 34, N-(5-chloro-3-methylpyridin-2-yl)-N-isobutyl-4-((tetrahydro-2H-pyran-4-yl)methoxy)benzenesulfonamide] | ≤ 31.6 | – |
| CCc1ccc(C)nc1N(CC(C)C)S(=O)(=O)c1ccc(OCc2c(C)noc2C)cc1 [Example 24, 4-((3,5-dimethylisoxazol-4-yl)methoxy)-N-(3-ethyl-6-methylpyridin-2-yl)-N-isobutylbenzenesulfonamide] | ≤ 31.6 | 1000 |
| Cc1cc(C(C)C)cnc1N(CC(C)C)S(=O)(=O)c1ccc(OCC2CCOCC2)cc1 [Example 31, N-isobutyl-N-(5-isopropyl-3-methylpyridin-2-yl)-4-((tetrahydro-2H-pyran-4-yl)methoxy)benzenesulfonamide] | ≤ 31.6 | – |

More lines, main results first:

| IC50 [2] [nM] | Compound | IC50 [1] [nM] |
| --- | --- | --- |
| ≤ 31.6 | CCC(C)CN(c1ccc(C(C)C)cn1)S(=O)(=O)c1ccc(OCc2c(C)noc2C)cc1 (stereo not drawn) [Example 49, 4-((3,5-dimethylisoxazol-4-yl)methoxy)-N-(5-isopropylpyridin-2-yl)-N-(2-methylbutyl)benzenesulfonamide] | – |
| ≤ 31.6 | Cc1noc(C)c1COc1ccc(S(=O)(=O)N(CC2CCC2)c2ccc(C(C)C)cn2)cc1 [Example 47, N-(cyclobutylmethyl)-4-((3,5-dimethylisoxazol-4-yl)methoxy)-N-(5-isopropylpyridin-2-yl)benzenesulfonamide] | – |
| ≤ 31.6 | Cc1noc(C)c1COc1ccc(S(=O)(=O)N(CC(C)C)c2ccc(C(C)C)cn2)cc1 [Example 2, 4-((3,5-dimethylisoxazol-4-yl)-methoxy)-N-isobutyl-N-(5-isopropylpyridin-2-yl)benzenesulfonamide] | 1000 |
| ≤ 31.6 | Cc1cnc(N(CC(C)C)S(=O)(=O)c2ccc(OCc3c(C)noc3C)cc2)c(C)c1 [Example 15, 4-{[(3,5-dimethyl-4-isoxazolyl)methyl]oxy}-N-(3,5-dimethyl-2-pyridinyl)-N-(2-methylpropyl)benzenesulfonamide] | – |
